Test systems include DMS 273 small cell lung; XF 498 CNS; HOP-18 NSCLC; KM20L2 colon; RXF-631 renal; DMS 114 small cell lung; LXFL 529 NSCLC; DLD-1 colon; MDA-N.
Common to all, as to assay: NCI anticancer screen, dose series, 48 h

Several values for one entry are separate records, joined by “and”; a condition that tells them apart may be missing. Equal entries are not always repeated.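 Cultured in 96-well plates, cells were exposed to test compound for 48 hours across five concentrations. Here, GI50 denotes the concentration required for 50% inhibition of growth. TGI marks complete inhibition of growth.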 Some results are limits rather than exact numbers.

Turning to `COC(=O)/C=C1\CCC2[C@@H](C(=O)CC3[C@]2(C)CCC[C@@]3(C)C(=O)OC)C1C` (some centres not stated), the TGI in the assay on DMS 273 small cell lung turned out to be 52.4 µM; in the assay on XF 498 CNS, 28 µM; with HOP-18 NSCLC it was 79.4 µM; in the assay on KM20L2 colon, 80.3 µM; with RXF-631 renal it was 63.1 µM; with DMS 114 small cell lung, 37.2 µM. The TGI was 23.7 µM in the assay with LXFL 529 NSCLC and over 100 µM in the assay on DLD-1 colon.
For `Cc1nc2ccccc2c(=O)n1/N=C(\N=Nc1ccccc1)c1ccccc1Cl`, the TGI in the assay with DMS 273 small cell lung was over 100 µM; with XF 498 CNS it was 44.9 µM; in the assay on HOP-18 NSCLC it was 30.1 µM; in the assay on KM20L2 colon, over 100 µM; in the assay on RXF-631 renal it was over 100 µM; in the assay with DMS 114 small cell lung, over 90.1 µM. Moreover, the TGI in the assay with LXFL 529 NSCLC and in the assay with DLD-1 colon was over 100 µM throughout.
Regarding `O=CCCn1[nH]c(=O)ccc1=O`, the TGI with DMS 273 small cell lung, in the assay on KM20L2 colon, in the assay with DMS 114 small cell lung and in the assay with DLD-1 colon was over 100 µM in each case.
With `O=CN/C=C/c1ccccc1`, the TGI in the assay with DMS 273 small cell lung, in the assay with HOP-18 NSCLC, in the assay with KM20L2 colon, with RXF-631 renal, in the assay with LXFL 529 NSCLC and with DLD-1 colon was over 100 µM in each case.
For `CC(=O)O[C@@H]1c2c(c3c(=O)c4cccc(O)c4c(=O)c=3c2=[N+]=[N-])[C@H](OC(C)=O)[C@@H](OC(C)=O)[C@]1(C)O`, in the assay with MDA-N, the GI50 was 0.235 µM; the TGI is 1.05 µM and 0.733 µM.
For `CCNCC(=O)Nc1ccc2c(c1)C(=O)c1ccc(NC(=O)CNCC)cc1C2=O`, the TGI with MDA-N worked out at 18.9 µM.
In the assay with MDA-N, `CC(=O)OCC1OC(SC2=N/C(=C\c3ccc(Br)s3)C(=O)N2c2ccccc2)C(OC(C)=O)C(OC(C)=O)C1OC(C)=O` (configuration not stated) came in with a TGI of over 100 µM.
As to `C=CCCn1nc(-c2ccccc2)oc1=O`, the TGI in the assay with DMS 273 small cell lung, in the assay with XF 498 CNS, in the assay with HOP-18 NSCLC, with KM20L2 colon, in the assay with LXFL 529 NSCLC and in the assay on DLD-1 colon was over 100 µM throughout.
`O=C1CCCc2ccc([N+](=O)[O-])c(O)c21`: the TGI in the assay with DMS 273 small cell lung, in the assay on KM20L2 colon, in the assay on DMS 114 small cell lung, in the assay with LXFL 529 NSCLC and with DLD-1 colon was over 100 µM in each case.
In the case of `CCOC(=O)NC(=O)c1cn(CCSCCOC(=O)NCCCCCCNC(=O)OCCSCCn2cc(C(=O)NC(=O)OCC)c(=O)n(C)c2=O)c(=O)n(C)c1=O`, the TGI in the assay on XF 498 CNS was 85.4 µM; in the assay on HOP-18 NSCLC, 1.02 µM; with KM20L2 colon, over 100 µM; in the assay with RXF-631 renal, 64 µM; with LXFL 529 NSCLC it was over 100 µM; in the assay with DLD-1 colon, over 100 µM.
Turning to `COc1ccc(/C=C/c2onc3c(=O)n(C)nc(-c4ccccc4)c23)cc1`, the TGI in the assay with DMS 273 small cell lung, in the assay on XF 498 CNS, in the assay on HOP-18 NSCLC, in the assay on KM20L2 colon, in the assay with DMS 114 small cell lung and in the assay with LXFL 529 NSCLC was over 100 µM throughout. In addition, the TGI with DLD-1 colon was over 100 µM.
For `CN1CCc2ccccc2C1Cc1ccccc1NC(=O)c1sc2ccccc2c1Cl` (configuration not stated), the TGI in the assay with MDA-N was over 100 µM.
`Cn1cnc([N+](=O)[O-])c1Sc1n[nH]c(-c2ccc(Cl)cc2)n1`: the TGI was 37.3 µM in the assay on DMS 273 small cell lung; 27.6 µM with XF 498 CNS; 8.3 µM in the assay on HOP-18 NSCLC; 59 µM in the assay with RXF-631 renal; 49.7 µM in the assay on DMS 114 small cell lung; 36.7 µM with LXFL 529 NSCLC. Further, the TGI in the assay on DLD-1 colon turned out to be 52.5 µM.
On to `C[C@@H]1CC[C@@]2(C)OC(c3ccccc3)[C@H](CO)N2C1=O` (some centres not stated), for which the TGI with DMS 273 small cell lung, in the assay with XF 498 CNS, with HOP-18 NSCLC, with KM20L2 colon, in the assay on DMS 114 small cell lung and in the assay on DLD-1 colon was over 100 µM in each case.
As for `C[C@]12Cc3conc3C(O)=C1CC[C@@H]1C2CC[C@@]2(C)C1CC[C@@H]2O` (some centres not stated), the TGI in the assay with DMS 273 small cell lung is 25.2 µM; in the assay on XF 498 CNS, 33.9 µM; in the assay with HOP-18 NSCLC, over 100 µM; in the assay on KM20L2 colon, over 100 µM; with LXFL 529 NSCLC, 33.5 µM.
For `CN(C)CC1(C)CC/C(=C\c2ccc(Cl)cc2)C1=O` (configuration not stated), the TGI is 50.7 µM in the assay with DMS 273 small cell lung; over 100 µM in the assay with XF 498 CNS; over 100 µM in the assay with HOP-18 NSCLC; 35.7 µM in the assay with KM20L2 colon; 56.2 µM in the assay on DMS 114 small cell lung; 40.8 µM in the assay with LXFL 529 NSCLC. Also, the TGI in the assay on DLD-1 colon was 85.7 µM.
On to `O=S(O)O.O=S(O)O.[Co].[NH2-].[NH2-].[NH2-].[NH2-]`, for which, in the assay on MDA-N, the GI50 was over 100 µM and the TGI was over 100 µM.
With `c1cc[c]([Ge]([O]c2cccc3cccnc23)([c]2ccccc2)[c]2ccccc2)cc1`, the GI50 with DMS 273 small cell lung is 3.46 µM; with HOP-18 NSCLC it was 1.26 µM; in the assay with KM20L2 colon it was 2.59 µM; with DMS 114 small cell lung, 2.32 µM; in the assay on LXFL 529 NSCLC, 2.31 µM; with DLD-1 colon, 3.22 µM. Moreover, the TGI in the assay with DMS 273 small cell lung is 12.4 µM; in the assay on HOP-18 NSCLC, 8.37 µM; in the assay on KM20L2 colon it was 5.97 µM; with DMS 114 small cell lung, 5.06 µM; in the assay on LXFL 529 NSCLC it was 5.27 µM; with DLD-1 colon it was 11.3 µM.
For the molecule `C=C(C)CC(C(=O)O)c1ccc(C)cc1` (configuration not stated), the TGI with DMS 273 small cell lung, with XF 498 CNS, in the assay on HOP-18 NSCLC, in the assay with KM20L2 colon, in the assay on DMS 114 small cell lung and with DLD-1 colon was over 100 µM each time.
For the molecule `N#CC(Sc1ccccc1)C(N)=O` (configuration not stated), the TGI with DMS 273 small cell lung, in the assay with XF 498 CNS, in the assay with HOP-18 NSCLC, in the assay on KM20L2 colon, in the assay with RXF-631 renal and in the assay with DMS 114 small cell lung was over 100 µM in each case. In addition, the TGI with LXFL 529 NSCLC and in the assay on DLD-1 colon was over 100 µM each time.
As for `COc1ccc(C2(Cl)C(Cl)(C(F)(F)F)C2(Cl)C(F)(F)F)cc1` (configuration not stated), the TGI in the assay on DMS 273 small cell lung worked out at 27.4 µM; in the assay on XF 498 CNS, 25.5 µM; with HOP-18 NSCLC, 28.6 µM; in the assay with KM20L2 colon it was 28.9 µM; in the assay with RXF-631 renal it was 30.3 µM; with DMS 114 small cell lung, 25 µM. Also, the TGI in the assay on LXFL 529 NSCLC stood at 27.1 µM; with DLD-1 colon, 29.4 µM.
For the molecule `CC(C)C1=Cc2ccc3c(c2C(=O)C1=O)CCCC3`, the TGI with DMS 273 small cell lung came to 13.6 µM; in the assay on MDA-N, 19.3 µM; in the assay with XF 498 CNS, 5.53 µM; in the assay on HOP-18 NSCLC it was 8.96 µM; in the assay on KM20L2 colon, 42.7 µM; in the assay on RXF-631 renal, 25.1 µM. Also, the results for the TGI with DMS 114 small cell lung, in the assay with LXFL 529 NSCLC and in the assay on DLD-1 colon were 3.61 µM, 2.52 µM and 3.31 µM, respectively.
With `CC1(C)C(=O)/C=C\C(=O)C(C)(C)C2=CC=C(O2)C(C)(C)C(=O)C(Br)C(Br)C(=O)C(C)(C)C2=CC=C1O2` (configuration not stated), the TGI in the assay with DMS 273 small cell lung, in the assay with MDA-N, with XF 498 CNS, in the assay with HOP-18 NSCLC, with KM20L2 colon and with RXF-631 renal was over 100 µM throughout. The values for the TGI with DMS 114 small cell lung, with LXFL 529 NSCLC and in the assay on DLD-1 colon were over 31.6 µM, over 100 µM and 87.2 µM, respectively.
Consider `C=CC12CCCCC1CC(C(=O)OC)=C(O)C2` (configuration not stated), for which the TGI in the assay with DMS 273 small cell lung, in the assay on XF 498 CNS, with HOP-18 NSCLC, with KM20L2 colon, in the assay on RXF-631 renal and with DMS 114 small cell lung was over 100 µM in each case. The TGI in the assay with LXFL 529 NSCLC and in the assay on DLD-1 colon was over 100 µM in each case.
As to `COc1cccc(/C=C2\CCC(CN(C)C)C2=O)c1` (configuration not stated), the TGI in the assay on DMS 273 small cell lung came to 26.2 µM; in the assay with MDA-N it was 16.8 µM; in the assay on XF 498 CNS it was 33.6 µM; with HOP-18 NSCLC it was 33.2 µM; in the assay with KM20L2 colon it was 31.7 µM; with RXF-631 renal it was 20.2 µM. Moreover, the results for the TGI in the assay with DMS 114 small cell lung, in the assay on LXFL 529 NSCLC and with DLD-1 colon were 42.4 µM, 6.45 µM and 7.81 µM, respectively.
As for `CCOC(=O)C1CC(=O)C=C2CCCCC21` (configuration not stated), the TGI with DMS 273 small cell lung, in the assay on XF 498 CNS, in the assay on RXF-631 renal, in the assay with DMS 114 small cell lung, in the assay with LXFL 529 NSCLC and in the assay with DLD-1 colon was over 100 µM each time.
With `O=C1CCC2(c3ccc(Cl)cc3)Nc3ccccc3N12` (configuration not stated), the TGI in the assay with XF 498 CNS, with HOP-18 NSCLC, in the assay on KM20L2 colon, with RXF-631 renal, in the assay on DMS 114 small cell lung and in the assay on LXFL 529 NSCLC was over 100 µM each time. This molecule came in with a TGI in the assay on DLD-1 colon of over 100 µM.
As to `O/N=C1/CCCC/C1=C\c1ccc(Cl)c(Cl)c1`, the TGI in the assay on DMS 273 small cell lung was determined as 63.1 µM; in the assay with XF 498 CNS it was 46.4 µM; with HOP-18 NSCLC, 59.8 µM; in the assay with KM20L2 colon, 43.4 µM; in the assay on DMS 114 small cell lung, 59.8 µM; in the assay on LXFL 529 NSCLC, 54.4 µM. In the assay on DLD-1 colon, the TGI is over 100 µM.
As for `O=C(O)c1cnc2c(ccc3[nH]cccc32)c1=O`, the TGI in the assay with DMS 273 small cell lung, with HOP-18 NSCLC, in the assay on KM20L2 colon, in the assay with DMS 114 small cell lung, with LXFL 529 NSCLC and with DLD-1 colon was over 100 µM throughout.
